± gives the expanded uncertainty stated by the source.
Assay: refractive index (Na D-line) (dimensionless)
Conditions: 293.1 K; 101.33 kPa; Liquid; Standard Abbe refractometry

| refractive index | Structure (SMILES) |
| --- | --- |
| 1.484 ± 0.0007 | O=CN1CCOCC1 [N-formylmorpholine] |
| 1.423 ± 0.0007 | CC1CCCCC1 [methylcyclohexane] |

| Structure (SMILES) | refractive index |
| --- | --- |
| Cc1ccccc1 [toluene] | 1.4873 ± 0.0007 |

— the NIST ThermoML archive (doi:10.1021/je700036v)
